{
  "source": "paper PMC3701070",
  "about": "(PLoS ONE, 2013)",
  "assay_in_all_cases": "Cell growth assay",
  "format_in_all_cases": "cell-based",
  "key": {"[1]": {"system": "LS1034", "settings": "Homo sapiens, LS-1034, 72 h; LS1034, RAF WT, KRAS(A146T), 3-day; read-out: gIC50", "experimental": "(§1) Growth was measured with CellTiter-Glo® (Promega) reagent per the manufacturer’s protocol, using a PerkinElmer EnVision™ reader at t = 0 and 72 h. IC50 values for cell growth inhibition (gIC50) were determined.\n(§2) (PDF) Click here for additional data file."}, "[2]": {"system": "ZR-75-1", "settings": "Homo sapiens, 72 h; ZR-75-1, RAF WT, RAS WT, 3-day; read-out: gIC50", "experimental": "as §1, §2"}, "[3]": {"system": "MDA-MB-468", "settings": "Homo sapiens, 72 h; MDA-MB-468, RAF WT, RAS WT, 3-day; read-out: gIC50", "experimental": "as §1, §2"}, "[4]": {"system": "SW1463", "settings": "Homo sapiens, 72 h; SW1463, RAF WT, RAS WT, 3-day; read-out: gIC50", "experimental": "as §1, §2"}, "[5]": {"system": "NCI-H1563", "settings": "Homo sapiens, 72 h; NCI-H1563, RAF WT, RAS WT, 3-day; read-out: gIC50", "experimental": "as §1, §2"}, "[6]": {"system": "UMUC-3", "settings": "Homo sapiens, UMUC3, 72 h; UMUC-3, RAF WT, KRAS(G12C), 3-day; read-out: gIC50", "experimental": "as §1, §2"}, "[7]": {"system": "Hs746.T", "settings": "Homo sapiens, Hs746T, 72 h, RAF WT, RAS WT, 3-day, read-out: gIC50", "experimental": "as §1, §2"}, "[8]": {"system": "HuT78", "settings": "Homo sapiens, 72 h; HuT78, RAF WT, RAS WT, 3-day; read-out: gIC50", "experimental": "as §1, §2"}, "[9]": {"system": "A431", "settings": "Homo sapiens, A-431, 72 h; A431, RAF WT, RAS WT, 3-day; read-out: gIC50", "experimental": "as §1, §2"}, "[10]": {"system": "NCI-H460", "settings": "Homo sapiens, 72 h; NCI-H460, RAF WT, KRAS(Q61H), 3-day; read-out: gIC50", "experimental": "as §1, §2"}, "[11]": {"system": "MiaPaCa", "settings": "Homo sapiens, MIA PaCa-2, 72 h, RAF WT, RAS WT, 3-day, read-out: gIC50", "experimental": "as §1, §2"}, "[12]": {"system": "NCI-H2030", "settings": "Homo sapiens, 72 h; NCI-H2030, RAF WT, RAS WT, 3-day; read-out: gIC50", "experimental": "as §1, §2"}, "[13]": {"system": "C33A", "settings": "Homo sapiens, C-33-A, 72 h, RAF WT, RAS WT, 3-day, read-out: gIC50", "experimental": "as §1, §2"}, "[14]": {"system": "SW-837", "settings": "Homo sapiens, SW837, 72 h; SW-837, RAF WT, KRAS(G12C), 3-day; read-out: gIC50", "experimental": "as §1, §2"}, "[15]": {"system": "SNU-449", "settings": "Homo sapiens, 72 h; SNU-449, RAF WT, RAS WT, 3-day; read-out: gIC50", "experimental": "as §1, §2"}, "[16]": {"system": "SCC-15", "settings": "Homo sapiens, 72 h; SCC-15, RAF WT, RAS WT, 3-day; read-out: gIC50", "experimental": "as §1, §2"}, "[17]": {"system": "HuNS-1", "settings": "Homo sapiens, HuNS1, 72 h; HuNS-1, RAF WT, RAS WT, 3-day; read-out: gIC50", "experimental": "as §1, §2"}, "[18]": {"system": "NCI-H157", "settings": "Homo sapiens, 72 h; NCI-H157, RAF WT, RAS WT, 3-day; read-out: gIC50", "experimental": "as §1, §2"}, "[19]": {"system": "Colo320DM", "settings": "Homo sapiens, COLO 320DM, 72 h, RAF WT, RAS WT, 3-day, read-out: gIC50", "experimental": "as §1, §2"}, "[20]": {"system": "NCI-H630", "settings": "Homo sapiens, 72 h; NCI-H630, RAF WT, RAS WT, 3-day; read-out: gIC50", "experimental": "as §1, §2"}, "[21]": {"system": "LNCaP", "settings": "Homo sapiens, 72 h, RAF WT, RAS WT, 3-day, read-out: gIC50", "experimental": "as §1, §2"}, "[22]": {"system": "RL", "settings": "Homo sapiens, 72 h, RAF WT, RAS WT, 3-day, read-out: gIC50", "experimental": "as §1, §2"}, "[23]": {"system": "HT-1080", "settings": "Homo sapiens, 72 h; HT-1080, RAF WT, RAS WT, 3-day; read-out: gIC50", "experimental": "as §1, §2"}, "[24]": {"system": "SCC-25", "settings": "Homo sapiens, 72 h; SCC-25, RAF WT, RAS WT, 3-day; read-out: gIC50", "experimental": "as §1, §2"}, "[25]": {"system": "BT-20", "settings": "Homo sapiens, 72 h; BT-20, RAF WT, RAS WT, 3-day; read-out: gIC50", "experimental": "as §1, §2"}, "[26]": {"system": "NCI-H508", "settings": "Homo sapiens, 72 h; NCI-H508, BRAF(G596R), RAS WT, 3-day; read-out: gIC50", "experimental": "as §1, §2"}, "[27]": {"system": "SNU-16", "settings": "Homo sapiens, 72 h; SNU-16, RAF WT, RAS WT, 3-day; read-out: gIC50", "experimental": "as §1, §2"}, "[28]": {"system": "HPAF-II", "settings": "Homo sapiens, 72 h, RAF WT, RAS WT, 3-day, read-out: gIC50", "experimental": "as §1, §2"}, "[29]": {"system": "JM1", "settings": "Homo sapiens, 72 h; JM1, RAF WT, RAS WT, 3-day; read-out: gIC50", "experimental": "as §1, §2"}, "[30]": {"system": "RKO", "settings": "Homo sapiens, 72 h, BRAF(V600E), RAS WT, 3-day, read-out: gIC50", "experimental": "as §1, §2"}, "[31]": {"system": "ARH-77", "settings": "Homo sapiens, 72 h; ARH-77, RAF WT, RAS WT, 3-day; read-out: gIC50", "experimental": "as §1, §2"}},
  "data": [
    {"smiles": "CC(C)(C)c1nc(-c2cccc(NS(=O)(=O)c3c(F)cccc3F)c2F)c(-c2ccnc(N)n2)s1", "note": "[dabrafenib]", "values": [
      {"measurement": "IC50", "setting": "[1]", "value": "> 10", "unit": "µM"},
      {"measurement": "IC50", "setting": "[2]", "value": "> 10", "unit": "µM"},
      {"measurement": "IC50", "setting": "[3]", "value": "> 10", "unit": "µM"},
      {"measurement": "IC50", "setting": "[4]", "value": "> 10", "unit": "µM"},
      {"measurement": "IC50", "setting": "[5]", "value": "> 10", "unit": "µM"},
      {"measurement": "IC50", "setting": "[6]", "value": "> 10", "unit": "µM"},
      {"measurement": "IC50", "setting": "[7]", "value": "> 10", "unit": "µM"},
      {"measurement": "IC50", "setting": "[8]", "value": 0.052, "unit": "µM"},
      {"measurement": "IC50", "setting": "[9]", "value": "> 10", "unit": "µM"},
      {"measurement": "IC50", "setting": "[10]", "value": "> 10", "unit": "µM"},
      {"measurement": "IC50", "setting": "[11]", "value": "> 10", "unit": "µM"},
      {"measurement": "IC50", "setting": "[12]", "value": "> 10", "unit": "µM"},
      {"measurement": "IC50", "setting": "[13]", "value": "> 10", "unit": "µM"},
      {"measurement": "IC50", "setting": "[14]", "value": "> 10", "unit": "µM"},
      {"measurement": "IC50", "setting": "[15]", "value": "> 10", "unit": "µM"},
      {"measurement": "IC50", "setting": "[16]", "value": "> 10", "unit": "µM"},
      {"measurement": "IC50", "setting": "[17]", "value": "> 10", "unit": "µM"},
      {"measurement": "IC50", "setting": "[18]", "value": "> 10", "unit": "µM"},
      {"measurement": "IC50", "setting": "[19]", "value": "> 10", "unit": "µM"},
      {"measurement": "IC50", "setting": "[20]", "value": "> 10", "unit": "µM"},
      {"measurement": "IC50", "setting": "[21]", "value": "> 10", "unit": "µM"},
      {"measurement": "IC50", "setting": "[22]", "value": "> 10", "unit": "µM"},
      {"measurement": "IC50", "setting": "[23]", "value": 2, "unit": "µM"},
      {"measurement": "IC50", "setting": "[24]", "value": "> 10", "unit": "µM"},
      {"measurement": "IC50", "setting": "[25]", "value": "> 10", "unit": "µM"},
      {"measurement": "IC50", "setting": "[26]", "value": "> 10", "unit": "µM"},
      {"measurement": "IC50", "setting": "[27]", "value": "> 10", "unit": "µM"},
      {"measurement": "IC50", "setting": "[28]", "value": "> 10", "unit": "µM"},
      {"measurement": "IC50", "setting": "[29]", "value": "> 10", "unit": "µM"},
      {"measurement": "IC50", "setting": "[30]", "value": 2.52, "unit": "µM"},
      {"measurement": "IC50", "setting": "[31]", "value": "> 10", "unit": "µM"}
    ]}
  ]
}
